Data taken from ChEMBL document CHEMBL1131882, “Unsymmetrical cyclic ureas as HIV-1 protease inhibitors: novel biaryl indazoles as P2/P2' substituents” (Bioorg Med Chem Lett, 1999).
pKi: −log10 of the molar value.

Legend:
[1] = target: Human immunodeficiency virus type 1 protease (Human immunodeficiency virus 1, UniProt Q72874); experiment: Binding affinity for HIV -1 Protease
[2] = system: Human immunodeficiency virus 1; experiment: Inhibitory activity against Ritonavir resistant virus mutant strain; format: functional
[3] = target: Human immunodeficiency virus type 1 protease (Human immunodeficiency virus 1) (UniProt Q72874); experiment: Inhibitory activity against HIV -1 Protease in whole cell assay

Row | Compound | pKi [1] | IC90 [2] [nM] | IC90 [3] [nM]
1 | Nc1cccc(CN2C(=O)N(Cc3ccc4[nH]nc(-c5cccc(N)c5)c4c3)[C@H](Cc3ccccc3)[C@H](O)[C@@H](O)[C@H]2Cc2ccccc2)c1 | 10.05 | 1300 | 30
2 | Nc1cccc(CN2C(=O)N(Cc3ccc4[nH]ncc4c3)[C@H](Cc3ccccc3)[C@H](O)[C@@H](O)[C@H]2Cc2ccccc2)c1 |  | 825 | 11
3 | CC(C)c1nc(CN(C)C(=O)N[C@H](C(=O)N[C@@H](Cc2ccccc2)C[C@H](O)[C@H](Cc2ccccc2)NC(=O)OCc2cncs2)C(C)C)cs1 [RITONAVIR] |  | 4500 | 
4 | Nc1cccc(CN2C(=O)N(Cc3ccc4[nH]nc(-c5ccsc5)c4c3)[C@H](Cc3ccccc3)[C@H](O)[C@@H](O)[C@H]2Cc2ccccc2)c1 | 9.89 | > 5000 | 32
5 | Nc1cccc(CN2C(=O)N(Cc3ccc4[nH]nc(-c5cccc(C(F)(F)F)c5)c4c3)[C@H](Cc3ccccc3)[C@H](O)[C@@H](O)[C@H]2Cc2ccccc2)c1 | 9.21 |  | 39
6 | COc1cccc(-c2[nH]nc3ccc(CN4C(=O)N(Cc5cccc(N)c5)[C@H](Cc5ccccc5)[C@H](O)[C@@H](O)[C@H]4Cc4ccccc4)cc23)c1 |  | 3140 | 33
7 | Nc1cccc(CN2C(=O)N(Cc3ccc4[nH]nc(-c5ccc(C(F)(F)F)cc5)c4c3)[C@H](Cc3ccccc3)[C@H](O)[C@@H](O)[C@H]2Cc2ccccc2)c1 | 9.60 |  | 255
8 | Nc1cccc(CN2C(=O)N(Cc3ccc4[nH]nc(-c5cc[nH]n5)c4c3)[C@H](Cc3ccccc3)[C@H](O)[C@@H](O)[C@H]2Cc2ccccc2)c1 | 10.24 | 525 | 108
9 | COc1cccc(-c2n[nH]c3ccc(CN4C(=O)N(Cc5cccc(N)c5)[C@H](Cc5ccccc5)[C@H](O)[C@@H](O)[C@H]4Cc4ccccc4)cc23)c1 | 9.62 |  | 
10 | COc1ccc(-c2[nH]nc3ccc(CN4C(=O)N(Cc5cccc(N)c5)[C@H](Cc5ccccc5)[C@H](O)[C@@H](O)[C@H]4Cc4ccccc4)cc23)cc1 | 9.59 | 4190 | 14
11 | Nc1cccc(CN2C(=O)N(Cc3ccc4[nH]nc(-c5ccc(F)cc5)c4c3)[C@H](Cc3ccccc3)[C@H](O)[C@@H](O)[C@H]2Cc2ccccc2)c1 | 9.52 | > 5000 | 39
12 | Nc1cccc(CN2C(=O)N(Cc3ccc4[nH]nc(-c5cccs5)c4c3)[C@H](Cc3ccccc3)[C@H](O)[C@@H](O)[C@H]2Cc2ccccc2)c1 | 9.74 | > 5000 | 31
